We go through 15 molecules from ChEMBL document CHEMBL2439954, “3D-QSAR using pharmacophore-based alignment and virtual screening for discovery of novel MCF-7 cell line inhibitors” (Eur J Med Chem, 2013).

This assay has as its system MCF7. As to the kind of experiment: Cytotoxicity against human MCF7 cells after 48 hrs by MTT assay. The conditions noted are these: MCF7, 48 h. It counts as functional, cell-based. On the technique in general: Formazan colour is commonly taken as a measure of viable cells.
As to `CCc1cccc(CC)c1N(COC)C(=O)Cn1c(CO)nc2ccccc21`, the IC50 – broadly, the concentration that gives 50% inhibition – turned out to be 123 µM. The value for `Nc1ccc(-c2nc3cc(N)ccc3n2CCO)cc1` was over 200 µM. On to `CC(C)CC(C(=O)Nc1cccc(O)c1)N1C(=O)c2ccccc2C1=O` (stereo not given), for which the 50% inhibitory concentration (IC50) is 148 µM. Next, `Cc1ccc(C)c(C(=O)C2=C(O)C(=O)N(Cc3ccco3)C2c2cccnc2)c1` (stereo not given): over 200 µM. The value for `COc1cccc(NC(=O)COc2ccc(C3C(C#N)=C(N)Oc4[nH]nc(C)c43)cc2)c1` (stereo not given) was 38.5 µM.

With `Nc1ccc(Oc2ccc3nc(-c4ccccc4)c(-c4ccc(N)cc4)nc3c2)cc1`, half-maximal inhibition (IC50) was put at 65.4 µM. Next, `Cc1ccc(/C=N\NC(=O)Cn2c(-c3nonc3N)nc3ccccc32)cc1`: 172 µM. Regarding `COc1ccc(-n2c(SCC(=O)Nc3cccc(C(C)=O)c3)nnc2-c2ccccc2OC)cc1`, the IC50 was over 200 µM. In turn, `COc1cc(C2C(C(=O)c3ccc(F)cc3)=C(O)C(=O)N2Cc2cccnc2)ccc1O` (stereo not given) gave an IC50 of 185 µM. The value for `COc1ccc(-c2cc(C(F)(F)F)n3ncc(C(=O)NC(C)c4ccccc4)c3n2)cc1OC` (stereo not given) was 30.2 µM. Next, `COc1ccc(COC(=O)/C(=C(\C)NC(N)=O)C(C)c2ccccc2OCc2ccccc2)cc1` (stereo not given): 108 µM; `Cc1cc(C(=O)C2=C(O)C(=O)N(CCN3CCOCC3)C2c2ccncc2)ccc1OCC(C)C` (stereo not given): 151 µM.

As for `CCOc1cccc(C(=O)C2=C(O)C(=O)N(Cc3ccco3)C2c2cccnc2)c1` (stereo not given), it took 181 µM to reach half-maximal inhibition (IC50). The value for `C[C@]12CC[C@H](O)CC1=CC[C@@H]1[C@@H]2CC[C@]2(C)C(=O)CC[C@@H]12` [PRASTERONE] was over 200 µM; that for `CC/C(=C(\c1ccccc1)c1ccc(OCCN(C)C)cc1)c1ccccc1` [TAMOXIFEN] was 15.2 µM.
